From ChEMBL document CHEMBL1136345, “Heterocyclic ketones as inhibitors of histone deacetylase” (Bioorg Med Chem Lett, 2003) come the findings set out here.

Structures are written as SMILES. Where only a bound is given, the exact number is not on record here.

The first data set has as its target Histone deacetylase. More on the design: species or system Homo sapiens.
Conditions: not given
For orientation: IC50 means the concentration needed to halve the response being measured. Compound `CNC(=O)C(=O)CCCCCCOc1ccc(-c2ccccc2)cc1` had an IC50 of 0.11 µM.

Tested on in a further data set: not listed separately
The data set can be described thus: Anti-proliferative activity against MDA-435 cells mediated by HDAC inhibition. The format is functional, cell-based. The settings on record: Homo sapiens, MDA435.
On to `COc1ccc(-c2csc(NC(=O)CCCCCCC(=O)c3ncco3)n2)cc1`, for which it took 2.3 µM to reach half-maximal inhibition (IC50).

Tested on in another data set: not listed separately
The data set can be described thus: Half-life was determined. The settings on record: human. In kind it is ADME.
A word on the half-life: it is the time in which the quantity being followed falls by half. `O=C(CCCCCCOc1ccc(-c2ccccc2)cc1)c1ncco1`: the half-life was 10.8 min.
Still for that read-out and setting: the same measure for `O=C(CCCCCCOc1cccc(-c2ccccc2)c1)c1ncco1`: 12.6 min.

The target in another data set is Histone deacetylase. Kind of data set: Inhibitory activity against Histone deacetylase (HDAC) in K 562 erythroleukemia cells (Radioactivity based HDAC assay).
Conditions: not given
Also on record: species or system Homo sapiens.
In the case of `Cn1cncc1C(=O)CCCCCCOc1ccc(-c2ccccc2)cc1`, the IC50 was above 50 µM.
With `OC(CCCCCCOc1cccc(-c2ccccc2)c1)c1ncco1` (centres undefined), the IC50 was above 50 µM.
For `O=C(c1ncco1)[C@@H]1C[C@H]1CCCCOc1ccc(Oc2ccccc2)cc1`, the IC50 is above 50 µM.
Still for that read-out and setting: the same measure for `O=C(CCCCCC(=O)c1ncco1)NNc1ccc(Cl)cc1`: above 10 µM; for `O=C(CCCCCCOc1ccc(-c2ccccc2)cc1)c1ncc[nH]1`: above 50 µM; for `O=C(CCCCCCOc1ccc(-c2ccccc2)cc1)c1nccs1`: above 50 µM.
Still for that read-out and setting: with `O=C(CCCCCCOc1ccc(-c2ccccc2)cc1)c1nc2ncccc2o1` the figure was above 50 µM; with `O=C(CCCCCCOc1ccc(-c2ccccc2)cc1)c1nc2ccccc2o1`, above 50 µM; with `O=C(CCCCCCC(=O)c1ncco1)NNC(=O)c1ccc(-c2ccccc2)cc1`, 1.83 µM.
Consider `Cn1ccnc1C(=O)CCCCCCOc1ccc(-c2ccccc2)cc1`, for which the IC50 is above 50 µM.
`O=C(CCCCCCOc1ccc(-c2ccccc2)cc1)c1ccccn1`: the IC50 is above 50 µM.
On the same count and under the same terms, the same measure for `O=C(CCCCCCc1nnc(-c2ccc(-c3ccccc3)cc2)o1)c1ncco1`: 0.25 µM.

For another data set, the target named is Histone deacetylase. The data set can be described thus: In vitro inhibition of Histone deacetylase in K 562 erythroleukemia cells. Also on record: species or system Homo sapiens.
Conditions: not given
Compound `O=C(NCCCCCCC(=O)c1ncco1)c1cc2ccccc2[nH]1` registered an IC50 of 0.09 µM.
Compound `O=C(CCCCCCOc1ccc(-c2ccccc2)cc1)c1ncco1` displayed an IC50 of 1.1 µM.
For `O=C(CCCCCCC(=O)c1ncco1)Nc1cccc(-c2ccccc2)c1`, the IC50 was found to be 0.06 µM.
Still for that read-out and setting: with `O=C(NCCCCCC(=O)c1ncco1)c1cc2ccccc2[nH]1` the figure was 0.34 µM.
`COc1ccc(-c2csc(NC(=O)CCCCCCC(=O)c3ncco3)n2)cc1`: the IC50 was determined as 0.03 µM.
In the case of `O=C(CCCCCC(=O)c1ncco1)NCc1ccc(Cl)cc1`, the IC50 is 6.4 µM.
As for `O=C(CCCCCC(=O)c1ncco1)Nc1ccc(Cl)cc1`, the IC50 is 1.5 µM.
Still for that read-out and setting: the same measure for `O=C(CCCCCCOc1ccc2ccccc2c1)c1ncco1`: 0.52 µM; for `O=C(CCCCCCC(=O)c1ncco1)Nc1ccc(Oc2ccccc2)cc1`: 0.58 µM.
For the compound `O=C(CCCCCCSc1ccc2ccccc2c1)c1ncco1`, the IC50 is 0.54 µM.
Still for that read-out and setting: with `O=C(CCCCCCC(=O)c1ncco1)Nc1ccc(Cl)cc1` the figure was 0.32 µM; with `O=C(CCCCCCOc1ccc(-c2ccccc2)cc1)C1=NCCO1`, 1.8 µM.
In the case of `O=C(CCCCC/C=C/c1ccc(-c2ccccc2)cc1)c1ncco1`, the IC50 amounted to 0.99 µM.
Take `O=C(CCCCCCNc1ccc2ccccc2c1)c1ncco1`: the IC50 turned out to be 0.43 µM.
On the same count and under the same terms, with `O=C(CCCCCCS(=O)(=O)c1ccc2ccccc2c1)c1ncco1` the figure was 0.61 µM; with `O=C(CCCCCCOc1cccc(-c2ccccc2)c1)c1ncco1`, 0.62 µM.
On to `O=C(CCCCCCOc1ccc(-c2ccccc2)cc1)c1nnn[nH]1`, for which the IC50 came out at 2 µM.
For the compound `O=C(CCCCCC(=O)c1ncco1)Nc1cccc(-c2ccccc2)c1`, the IC50 was determined as 0.31 µM.
